According to patent publication US9346797B1, “2-amino 6-(difluoromethyl)-5,5-difluoro-6-phenyl-3,4,5,6-tetrahydropyridines as BACE1 inhibitors” (H. Lundbeck A/S, priority 2014, dated 2016):
Read-outs that look alike come from different tables or passages of the source.

Experiment: Bioanalysis of brain and plasma samples (exposure, UPLC-MS/MS)
Format: in vivo
Settings: male, Sprague Dawley, po, rat, 3 hours post dose; for Kp at 3 h: brain/plasma, read-out: Brain/Plasma ratio; for concentration at 3 h: read-out: Exp
Procedure: Young adult Male Sprague Dawley rats of approximately 250 g weight were purchased from Charles River and received 0-30 mg/kg of vehicle (10% HP betaCD+1M MeSO4, pH 2.5) or test compounds (dissolved in vehicle) only by oral gavage (p.o). The compounds are dosed at a volume of 5 ml/kg. Cohorts of 5-10 animals were established for each treatment condition.
At T=180 minutes after initial dosing the animals were stunned and decapitated with a guillotine. Trunk-blood was sampled in EDTA coated tubes after decapitation of the animal. The blood was centrifuged at 2200 G at 4° C. for 15 minutes and the plasma was collected and frozen at −80° C. The blood was aliquoted for Aβ ELISA and DMPK analysis Immediately following sacrifice, the brain was extracted and split into 2 halves. The right hemibrains were snap frozen on dry ice and stored at −80° C. The left half was dissected; with the front forebrain taken for Aβ ELISA and the remainder used for DMPK analysis. These samples were also snap frozen on dry ice and stored at −80° C. until use for analysis.
TC was determined in plasma and brain homogenate using UltraPerformance LC® (UPLC®) chromatography followed by tandem-MS (MS/MS) detection.
Brain homogenate was prepared by homogenizing the brain 1:4 (v/v) with water:2-propanol:DMSO (50:30:20 v/v/v) followed by centrifugation and collection of the supernatant. Calibration standards and QC samples were prepared using a Hamilton robot. 150 μL of ISTD in acetonitrile (1 ng/mL ISTD) was added to 25 μL of calibration standards, QC samples and test samples (plasma and brain homogenate) using a Biomek robot. After centrifugation (6200 g, 4° C., 20 min) 100 μL supernatant from each sample was transferred to a new plate and mixed with 100 μL water with 0.1% formic acid using a Biomek robot (method file InVivo transfer). After a quick centrifugation (6200 g, 4° C., 5 min) the samples were placed in the auto-sampler.
MS/MS detection was done with an Applied Biosystems Sciex API 4000 instrument in positive-ion electrospray ionisation mode. TC and ISTD were detected at a parent>daughter mass to charge ratio (m/z). Nitrogen was used for the nebulizer and collision gases. The peak area correlated linearly with the plasma and brain concentration of the analytes in the range of 1.00-1000 ng/mL plasma and 5.00-5000 ng/g brain (corrected for dilution). If the plasma/brain sample drug concentration was above 1000 ng/mL or 5000 ng/g, the sample was diluted appropriately in blank plasma/blank brain homogenate before analysis. […]

Row | SMILES | Kp at 3 h (10 mg/kg p.o.) | Kp at 3 h (30 mg/kg p.o.) | concentration at 3 h (brain, 10 mg/kg p.o.) [ng/g] | concentration at 3 h (brain, 30 mg/kg p.o.) [ng/g] | concentration at 3 h (plasma, 10 mg/kg p.o.) [ng/g] | concentration at 3 h (plasma, 30 mg/kg p.o.) [ng/g]
1 | COc1cnc(C(=O)Nc2ccc(F)c([C@@]3(C(F)F)N=C(N)CCC3(F)F)c2)cn1 [Compound 3, (S)—N-(3-(6-amino-2-(difluoromethyl)-3,3-difluoro-2,3,4,5-tetrahydropyridin-2-yl)-4-fluorophenyl)-5-methoxypyrazine-2-carboxamide] | 0.3 | 0.32 | 511 | 2280 | 1680 | 7060
2 | COc1ccc(C(=O)Nc2ccc(F)c([C@@]3(C(F)F)N=C(N)CCC3(F)F)c2)nc1 [Compound 5, (S)—N-(3-(6-amino-2-(difluoromethyl)-3,3-difluoro-2,3,4,5-tetrahydropyridin-2-yl)-4-fluorophenyl)-5-methoxypicolinamide] | 0.28 | 0.29 | 187 | 959 | 660 | 3350
